“And” between values parts separate entries of the source, which are not always exact repeats. Equal values may be shown once.
Biological target: 5-hydroxytryptamine receptor 2A (Rattus norvegicus, UniProt P14842)
Sequence (P14842 whole entry): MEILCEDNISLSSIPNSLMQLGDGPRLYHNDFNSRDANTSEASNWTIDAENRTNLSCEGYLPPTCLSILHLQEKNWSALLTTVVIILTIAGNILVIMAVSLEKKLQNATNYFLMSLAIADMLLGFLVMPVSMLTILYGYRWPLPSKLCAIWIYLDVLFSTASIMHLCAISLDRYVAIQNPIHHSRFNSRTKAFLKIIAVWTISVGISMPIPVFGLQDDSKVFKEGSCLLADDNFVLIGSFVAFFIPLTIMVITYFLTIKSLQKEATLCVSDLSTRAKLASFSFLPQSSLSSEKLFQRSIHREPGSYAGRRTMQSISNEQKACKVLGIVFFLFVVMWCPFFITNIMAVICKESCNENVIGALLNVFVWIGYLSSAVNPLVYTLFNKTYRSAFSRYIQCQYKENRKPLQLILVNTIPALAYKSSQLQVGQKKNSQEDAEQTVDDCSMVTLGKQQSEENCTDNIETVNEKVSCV

SMILES | Ki
CN(C)CCCSc1ccccc1NC(=O)/C=C/c1ccccc1 [CINANSERIN] | 10.1 nM and 5.45 nM and 4.45 nM
NCCc1c[nH]c2ccccc12 [1H-indole-3-ethanamine] | 2930 nM and 1680 nM and 538 nM
c1ccc2nc(N3CCNCC3)ccc2c1 [2-Piperazin-1-yl-quinoline (Quipazine)] | 575 nM and 226 nM and 100 nM
